Experiments:
[1] = system: patient fibroblasts lacking functional SORD; test: Intracellular sorbitol level in patient fibroblasts (UPLC-MS/MS, normalised to protein content); type: cell-based, human; conditions: 72 hrs, Epalrestat 100 μM, Ranirestat 10 μM, vs DMSO
Description: Asynchronous cell cultures were grown to approximately 80% confluency and treated with epalrestat (100 μM), ranirestat (10 μM) or DMSO for 72 hours. Media containing the drugs or DMSO were changed every 24 hours.
Sorbitol determination in human fibroblast lysates was performed in ultra-performance liquid chromatography-tandem mass spectrometry (UPLC-MS/MS) (Waters Acquity UPLC & TQD mass spectrometer—Waters, Milford, MA, USA). […] Lysate samples underwent protein precipitation with Acetonitrile (1:5), ten-time dilution with Acetonitrile-water (50/50) and clean up on Oasis HLB cartridges (10 mg/1 ml), before injection in UPLC (3 μL). UPLC conditions: column, BEH Amide 1.7 μm (2.1×100 mm) at 88° C., eluent A, Acetonitrile 90%-water 5%-Isopropanol 5%, eluent B, Acetonitrile 80%-water 20%, gradient elution 0 min., 100% A, 3.6 min. 100% B, flow rate, 0.45 ml/min. The retention time of sorbitol was 2.7 min.
The effect of two commercially available aldose reductase inhibitors (ARI), Epalrestat and Ranirestat, were tested on intracellular sorbitol accumulation in patient fibroblasts lacking functional SORD. Patient and control fibroblasts were grown for 72 hrs in the presence or absence of Epalrestat (100 μM) or Ranirestat (10 μM) and intracellular sorbitol levels were measured thereafter.

[2] = system: Sodh2MB01265/MB01265 mutant flies; test: Age-dependent synaptic degeneration in the lamina (vacuoles, BRP immunostaining, confocal microscopy); type: in vivo, Drosophila melanogaster
Description: FIGS. 4A-G. Treatment with aldose reductase inhibitors Epalrestat and Ranirestat decrease sorbitol level and restore function. (FIG. 4A) Intracellular sorbitol level as measured by UPLC and normalised to protein content in fibroblasts from healthy controls (n=5, circle dots) and patients carrying biallelic nonsense mutations in SORD (n=5, square dots) after three days of treatment with Epalrestat 100 μM, Ranirestat 10 μM or DMSO. (FIG. 4B) Sorbitol level as measured by UPLC from brain/head homogenates and normalised to protein concentration from wild-type (yw, empty circle dots), Sodh2^MB01265/MB01265 (full circle dots) and neuron-specific knock-down of Sodh1 and […] (square dots) Drosophilae at 10 days after eggs enclosure. Sodh2 Mimic and Sodh1 and Soh2 RNAi Drosophilae were fed with either 80 μM Epalrestat, 80 μM Ranirestat or DMSO. The graphs show the mean±s.d. A two-tailed t-test was performed to compare sorbitol level. Statistical significance is indicated as *, ** or *** if P-value <0.05, <0.01 or <0.001, respectively, unless otherwise specified. All experiments were repeated independently twice with similar results. (FIG. 4C) Locomotor activity of control flies (yw) feeding with DMSO, Sodh2^MB01265/MB01265 flies feeding with DMSO, 80 μM Epalrestat, or 80 μM Ranirestat (n=10 in each group). Data are presented as mean±s.d. Statistical analysis was performed using Two-Way ANOVA followed by post-hoc Tukey's multiple comparison test. *P<0.05, ***P<0.001 (FIGS. 4D-4F) Laminae of Sodh2^MB01265/MB01265 homozygous flies at 10 DAE and 40 DAE fed with DMSO (FIG. 4D), 80 μM Epalrestat (FIG. 4E), or 80 μM Ranirestat (FIG. 4F). Arrowheads indicate the lamina vacuoles. Boxes indicate higher magnification areas of the lamina. The intensity of BRP is indicated. […] (FIG. 4G) Quantification of the vacuole number, size, and BRP intensity of (FIGS. 4D-4F). n=3. […]
Brain dissection and staining were carried out as previously described (Brazill et al., J Vis Exp. 2018; (138)). […] Images were processed and analyzed using FluoView 10-ASW (Olympus).

[3] = system: Sodh2MB01265/MB01265 Drosophila; test: Sorbitol level in fly brain/head homogenates (UPLC); type: in vivo, Drosophila melanogaster; conditions: Sodh2MB01265/MB01265 flies at 10 DAE; fed from 2 DAE, 80 μM / 80 μg/ml in food
Description: (FIG. 4B) Sorbitol level as measured by UPLC from brain/head homogenates and normalised to protein concentration from wild-type (yw, empty circle dots), Sodh2^MB01265/MB01265 (full circle dots) and neuron-specific knock-down of Sodh1 and Sodh1 by RNAi (square dots) Drosophilae at 10 days after eggs enclosure. Sodh2 Mimic and Sodh1 and Soh2 RNAi Drosophilae were fed with either 80 μM Epalrestat, 80 μM Ranirestat or DMSO. The graphs show the mean±s.d. A two-tailed t-test was performed to compare sorbitol level. Statistical significance is indicated as *, ** or *** if P-value <0.05, <0.01 or <0.001, respectively, unless otherwise specified.
Lysate samples underwent protein precipitation with Acetonitrile (1:5), ten-time dilution with Acetonitrile-water (50/50) and clean up on Oasis HLB cartridges (10 mg/1 ml), before injection in UPLC (3 μL). UPLC conditions: column, BEH Amide 1.7 μm (2.1×100 mm) at 88° C., eluent A, Acetonitrile 90%-water 5%-Isopropanol 5%, eluent B, Acetonitrile 80%-water 20%, gradient elution 0 min., 100% A, 3.6 min. 100% B, flow rate, 0.45 ml/min. The retention time of sorbitol was 2.7 min. MS/MS conditions: interface, Electrospray interface in negative ion mode, Multiple Reaction Monitoring acquisition, m/z 180.9→88.9 (CV 24, CE 15).
Unless specified, all flies were kept on cornmeal-molasses-yeast medium at 25° C., 65% humidity, with 12 h light/12 h dark cycles. […]

[4] = system: flies with neuronal specific knockdown of both Sodh1 and Sodh2; test: Locomotor activity (negative geotaxis assay), Sodh1 and Sodh2 double knockdown flies; type: in vivo, Drosophila melanogaster; conditions: neuronal specific knockdown of Sodh1 and Sodh2, 80 μM in food, vs yw control flies
Description: FIG. 7. Treatment with aldose reductase inhibitors Epalrestat and Ranirestat restore locomotor function in Sodh1 and Sodh2 double knockdown flies. Locomotor activity of control flies (yw) feeding with DMSO (dots, first data point from the left for each DAE point indicated), or flies with neuronal specific knockdown of Sodh1 and Sodh2 feeding with DMSO (squares, second data point from the left for each DAE point indicated), 80 μM Epalrestat (squares, third data point from the left for each DAE point indicated), or 80 μM Ranirestat (squares, forth data point from the left for each DAE point indicated). n=10 in each group. Data are presented as mean±s.d. Statistical analysis was performed using Two-Way ANOVA followed by post-hoc Tukey's multiple comparison test. ***P<0.001, ****P<0.0001. […] Equal amount of DMSO was mixed into the fly food as control. The vials were dried at room temperature for 12 h before feeding. For lifespan assay, 100 newly enclosed female flies of each group were collected and placed in vials of 20 individuals. Flies were transferred into new vials every 2 days and the number of dead flies was counted. Survival data was plotted using Kaplan-Meier plot and compared between groups using log-rank test. […] Flies that crossed the 8 cm line were counted. […]

[5] = system: Sodh2MB01265/MB01265 flies; test: Locomotor activity (negative geotaxis assay), Sodh2 mutant flies; type: in vivo, Drosophila melanogaster; conditions: 80 μM in food, vs yw control flies
Description: […] Equal amount of DMSO was mixed into the fly food as control. The vials were dried at room temperature for 12 h before feeding.
For lifespan assay, 100 newly enclosed female flies of each group were collected and placed in vials of 20 individuals. Flies were transferred into new vials every 2 days and the number of dead flies was counted. Survival data was plotted using Kaplan-Meier plot and compared between groups using log-rank test. For negative geotaxis behavior assay, 10 age-matched female flies were placed in a vial marked with a black line drawn horizontally 8 cm above the bottom. Flies were given 60 min to fully recover from CO2 anesthesia, and were gently tapped onto the bottom and given 10 s to climb. Flies that crossed the 8 cm line were counted. For each vial, this assay was repeated 10 times, and 10 independent vials of each group (a total 100 flies per group) were tested. To minimize observer-expectancy bias, this assay was performed with the examiner masked to the group assignment.

[6] = system: aldose reductase (AR) (AKR1B1 gene); test: Knock-down of aldose reductase by antisense oligonucleotide, Western blot normalized to β-tubulin; type: cell-based, Homo sapiens; conditions: SORD patient fibroblast and control fibroblasts; scrambled ASO (AR-S 1A) as control
Description: FIGS. 15A-15D. […] This was carried out in a SORD patient fibroblast and control fibroblasts and normalized to β-tubulin and measured via Western blot (FIGS. 15C-15D).
Fibroblasts were lysed in RIPA buffer (ThermoFisher) containing protease inhibitor (Roche) and sonicated for 5 minutes with the Bioruptor sonication device (Diagenode). Cell lysates were centrifuged at 13,000×g for 10 minutes at 4° C., and the supernatant was collected for protein quantification (Pierce BCA Protein Assay Kit). 30 μg of protein sample was mixed with Bolt LDS Sample Buffer and Sample Reducing Agent (ThermoFisher) and heated at 90° C. for 5 min. Samples were loaded on Bolt 4-12% Bis-Tris Plus mini-gel followed by transfer into a nitrocellulose membrane (Bio-Rad). Membrane was blocked with 5% non-fat milk and incubated with anti-SORD (ab189248, Abcam) antibody for 2 hours, washed with TBS containing 0.01% Tween 20 (Bio-Rad) and incubated with a secondary anti-rabbit antibody (Cell Signaling). Membrane was subsequently incubated with GAPDH primary antibody (Santa Cruz) and secondary anti-mouse antibody (Cell Signaling). Chemoluminescence detection was performed with the SuperSignal West Pico PLUS Chemiluminescent Substrate and imaged with the FluorChem E (ProteinSimple).

[7] = Sodh2MB01265/MB01265 flies, at both 10 and 40 DAE, 80 μM in food

Compound | intracellular sorbitol level [1] | localization of synaptic cytomatrix protein BRP [2, 7] | number of lamina vacuoles [2, 7] | age-dependent synaptic defects ([2]; Sodh2MB01265/MB01265 mutant flies, drug feeding) | sorbitol level in fly heads [3] | locomotor activity [4] | locomotor activity [5] | aldose reductase protein level (knock-down) [6]
O=C1C[C@@]2(C(=O)N1)C(=O)N(Cc1ccc(Br)cc1F)C(=O)c1cccn12 [Ranirestat] | significant reduction of sorbitol to a level comparable to controls | restored the localization of synaptic cytomatrix protein BRP | reduced the number of vacuoles | restored the age-dependent synaptic defects | significant reduction of sorbitol level | rescued to the levels of yw control flies | rescued to the levels of yw control flies | –
AR 1A: antisense oligonucleotide (ASO) targeting aldose reductase (AKR1B1), SEQ ID NO: 22, GTTTAAGATCATCTCCACCT, modified backbone (modified backbone, type not given here) | – | – | – | – | – | – | – | Significant knock-down
